Common to all, as to assay: Abscisic acid-sensitivity of seed embryo (seeds cut in halves, sprouting and sprout stretching)
What all share (assay type): in vivo

Assay [1] concerns Sanin 1 wheat seeds (the dormancy has been disrupted). As to the method:
(§1) Next, seeds obtained from 3 varieties Minaminokomugi, Sanin 1 and Tozan 18) and seeds in which dormancy has been disrupted (Minaminokomugi, Sanin 1) were soaked individually in 5% (W/V) Benlate T(DuPont, USA) for 10 minutes, then sterilized by washing with distilled water. The grains of these wheat seeds were cut in halves to be laid in pet dish. A section where 8 mL of abscisic acid (ABA) solution was added and a section where 8 mL of distilled water was added were produced for each seed, followed by culturing at 22° C. for 6 days to determine the sprouting rate and the degree of sprout stretching.

For assay [2], the system named is Sanin 1 wheat seeds (weak dormancy). As to the method: as §1
The test system of assay [3] is Minaminokomugi wheat seeds (the dormancy has been disrupted). Here is the method: as §1
Assay [4] has as its system Tozan 18 wheat seeds (weak dormancy). Here is the method:
as §1

The test system of assay [5] is Minaminokomugi wheat seeds (strong dormancy). Here is the method:
as §1

On to `CC1=CC(=O)CC(C)(C)[C@@]1(O)/C=C/C(C)=C\C(=O)O` [ABA, abscisic acid], for which the “Sprouting Rate (%)” value stood at 100% in assay [1] (Sanin 1 (dormancy disrupted), seeds cut in halves, + 10 μM ABA, 22° C., 6 days); 100% in assay [2] (Sanin 1, seeds cut in halves, + 10 μM ABA, 22° C., 6 days); 70% in assay [3] (Minaminokomugi (dormancy disrupted), seeds cut in halves, + 10 μM ABA, 22° C., 6 days); 100% in assay [4] (Tozan 18, seeds cut in halves, + 10 μM ABA, 22° C., 6 days); 0% in assay [5] (Minaminokomugi, seeds cut in halves, + 10 μM ABA, 22° C., 6 days). Further, the abscisic acid-sensitivity entry is recorded as “weak abscisic acid-sensitivity or insensitivity” in assay [1] (seeds of Sanin 1 in which dormancy has been disrupted); “weak abscisic acid-sensitivity or insensitivity” in assay [2] (seeds of Sanin 1 with weak dormancy); “weak abscisic acid-sensitivity or insensitivity” in assay [3] (seeds of Minaminokomugi in which dormancy has been disrupted); “weak abscisic acid-sensitivity or insensitivity” in assay [4] (seeds of Tozan 18 with weak dormancy); “strong abscisic acid-sensitivity” in assay [5] (seed of Minaminokomugi with strong dormancy).

Source of the values: US20020148008A1, “Gene which regulates the dormancy of wheat seed” (priority 2000, published 2002).
